Molecules are shown by their SMILES.

The subject of one series is chemokine-induced migration.
Assay: not given
Particulars: cited from earlier work.
For `CCCCCCCCCC=CC(=O)NC1CCCCNC1=O` (stereo not drawn) [dodec-2′,3′-enoyl-3-aminocaprolactam], the “BSCI potency/activity in words (comparative)” value is given as “markedly lower potency”.

For `CCCCCCCCCC(C)(C)CC(=O)NC1CCCCNC1=O` (stereo not drawn) [3′3′-dimethyldodecanoyl-3-aminocaprolactam], the “BSCI potency/activity in words (comparative)” value was “no more potent”.

In the next series the test system is MCP-1 induced migration of THP-1 cells. Put plainly: Inhibition of MCP-1 induced leukocyte migration (transwell, THP-1 cells). Format: cell-based. As to conditions: Homo sapiens, MCP-1 25 ng/ml, 2 hours 37° C., read-out: ED50 (concentration required to reduce the MCP-1-induced migration by 50%). The protocol:
In principle, this assay consists of two chambers separated by a porous membrane. The chemoattractant is placed in the lower compartment and the cells are placed in the upper compartment. After incubation for a period at 37° C. the cells move towards the chemoattractant, and the number of cells in the lower compartment is proportional to the chemoattractant activity (relative to a series of controls).
The THP-1 cell line (European Cell culture Collection) were used as the leukocyte cell population.
The following procedure is used for testing the invention compounds for MCP-1 induced leukocyte migration:
First, the cell suspension to be placed in the upper compartment is prepared. The THP-1 cells are pelleted by centrifugation (770×g; 4 mins) and washed with Geys Balanced Salt Solution with 1 mg/ml BSA (GBSS+BSA). This wash is then repeated, and the cells repelleted before being resuspended in a small volume of GBSS+BSA for counting, for example using a standard haemocytometer.
The volume of GBSS+BSA is then adjusted depending on the number of cells present so that the cells are at final density of 4.45×10^6 cells per ml of GBSS+BSA. This ensures that there are […] THP-1 cells in each 25 μl of the solution that will be placed in the upper chamber of the plate.
To test a single compound for its ability to inhibit MCP-1 induced migration, it is necessary to prepare two lots of cells. The suspension of THP-1 cells at 4.45×10^6 cells/ml is divided into two pots. To one pot the inhibitor under test is added at an appropriate final concentration, in an appropriate vehicle (for example at 1 μM in not more than 1% DMSO). To the second pot an equal volume of GBSS+BSA plus vehicle as appropriate (e.g. not more than 1% DMSO) is added to act as a control.
Next, the chemoattractant solution to be placed in the lower compartment is prepared. MCP-1 is diluted in GBSS+BSA to give a final concentration of 25 ng/ml. This is divided into two pots, as for the cell suspension. To one pot, the test compound is added to the same final concentration as was added to the cell suspension, while to the other pot an equal volume of GBSS+BSA plus vehicle as appropriate (e.g. not more than 1% DMSO) is added.
Note that the volume of liquid that needs to be added to make the addition of the text compound needs to be taken into account, when establishing the final concentration of MCP-1 in the solution for the lower compartment and the final concentration of cells in the upper compartment.
Once the chemoattractant solutions for the lower wells and cell solutions for the upper chambers have been prepared, the migration chamber should be assembled. Place 29 μl of the appropriate chemoattractant solution into the lower well of the chamber. Assays should be performed with at least triplicate determinations of each condition. Once all the lower chambers have been filled, apply the prous membrane to the chamber in accordance with the manufacturer's instructions. Finally, apply 25 μl of the appropriate cell solution to each upper chamber. A plastic lid is placed over the entire apparatus to prevent evaporation.
The assembled chamber is incubated at 37° C., 5% CO2, for 2 hours. A suspension of cells in GBSS+BSA is also incubated under identical conditions in a tube: these cells will be used to construct a standard curve for determining the number of cells that have migrated to the lower chamber under each condition.
At the end of the incubation, the liquid cell suspension is gently removed from the upper chamber, and 20 μl of ice-cold 20 mM EDTA in PBS is added to the upper chamber, and the apparatus is incubated at 4° C. for 15 mins. This procedure causes any cells adhering to the underside of the membrane to fall into the lower chamber.
After this incubation the filter is carefully flushed with GBSS+BSA to wash off the EDTA, and then the filter is removed. […]
On to `O=C(NC1CCCCNC1=O)c1ccc(F)cc1` (stereo not drawn) [Reference Example 10, 3-(4′-Fluorobenzoylamino)azepan-2-one], for which the EC50 was ≤ 100 nM.

Turning to `Cc1ccc(C(=O)NC2CCCCNC2=O)cc1` (stereo not drawn) [Reference Example 4, 3-(4′-Methylbenzoylamino)azepan-2-one], the EC50 is ≤ 100 nM.

For the compound `O=C(NC1CCCNC1=O)c1ccc(F)cc1` (stereo not drawn) [Reference Example 9, 3-(4′-Fluorobenzoylamino)tetrahydropyridin-2-one], the EC50 was ≤ 100 nM.

Consider `O=C(NC1CCCCNC1=O)c1ccc(Cl)cc1` (stereo not drawn) [Reference Example 6, 3-(4′-Chlorobenzoylamino)azepan-2-one], for which the EC50 is ≤ 100 nM.

For the compound `O=C(NC1CCCCNC1=O)c1ccccc1` (stereo not drawn) [Reference Example 2, 3-(Benzoylamino)azepan-2-one], the EC50 was ≤ 100 nM.

With `Cc1cc(C)cc(C(=O)NC2CCCNC2=O)c1` (stereo not drawn) [Reference Example 13, 3-(3′,5′-Dimethylbenzoylamino)tetrahydropyridin-2-one], the EC50 was ≤ 100 nM.

As for `O=C(NC1CCCNC1=O)c1ccc(Cl)cc1` (stereo not drawn) [Reference Example 5, 3-(4′-Chlorobenzoylamino)tetrahydropyridin-2-one], the EC50 is ≤ 100 nM.

Regarding `Cc1cc(C)cc(C(=O)NC2CCCCNC2=O)c1` (stereo not drawn) [Reference Example 14, 3-(3′,5′-Dimethylbenzoylamino)azepan-2-one], the EC50 was ≤ 100 nM.

`Cc1ccc(C(=O)NC2CCCNC2=O)cc1` (stereo not drawn) [Reference Example 3, 3-(4′-Methylbenzoylamino)tetrahydropyridin-2-one]: the EC50 was ≤ 100 nM.

As for `COc1ccc(C(=O)NC2CCCCNC2=O)cc1` (stereo not drawn) [Reference Example 8, 3-(4′-Methoxybenzoylamino)azepan-2-one], the EC50 was ≤ 100 nM.

Regarding `O=C(NC1CCCNC1=O)c1ccccc1` (stereo not drawn) [Reference Example 1, 3-(Benzoylamino)tetrahydropyridin-2-one], the EC50 is ≤ 100 nM.

Consider `COc1ccc(C(=O)NC2CCCNC2=O)cc1` (stereo not drawn) [Reference Example 7, 3-(4′-Methoxybenzoylamino)tetrahydropyridin-2-one], for which the EC50 is ≤ 100 nM.

System in a further series: not given
Assay: not given
Conditions: not given
In turn, `CC(C)(C)c1ccc(C(=O)N[C@H]2CCCNC2=O)cc1` [Example 20, (S)-3-(4′-tert-Butylbenzoylamino)-tetrahydropyridin-2-one] returned a melting point of 195 to 196 °C.

Compound `O=C(N[C@H]1CCCNC1=O)c1ccc(C(F)(F)F)cc1` [Example 4, (S)—N-(2-Oxopiperidin-3-yl)-4-(trifluoromethyl)benzamide] returned a melting point of 212 to 214 °C.

`CCCCCCCCc1ccc(C(=O)N[C@H]2CCCNC2=O)cc1` [Example 26, (S)-3-(4′-Octylbenzoylamino)-tetrahydropyridin-2-one] gave a melting point of 122 to 123 °C.

Consider `CCc1ccc(C(=O)N[C@H]2CCCNC2=O)cc1` [Example 15, (S)-3-(4′-Ethylbenzoylamino)-tetrahydropyridin-2-one], for which the melting point was 112 to 113 °C.

For the compound `O=C(N[C@H]1CCCNC1=O)c1cccc(F)c1F` [Example 7, (S)-2,3-difluoro-N-(2-oxopiperidin-3-yl)benzamide], the melting point lay within 160 to 162 °C.

For the compound `O=C(N[C@H]1CCCNC1=O)c1ccc(F)c(F)c1` [Example 11, (S)-3,4-difluoro-N-(2-oxopiperidin-3-yl)benzamide], the melting point was 202 to 204 °C.

In turn, `CCCCCCc1ccc(C(=O)N[C@H]2CCCNC2=O)cc1` [Example 23, (S)-3-(4′-Hexylbenzoylamino)-tetrahydropyridin-2-one] came in with a melting point of 118 to 119 °C.

`O=C(N[C@H]1CCCNC1=O)c1cc(F)cc(F)c1` [Example 12, (S)-3,5-difluoro-N-(2-oxopiperidin-3-yl)benzamide] had a melting point of 198 to 199 °C.

Regarding `O=C(N[C@H]1CCCNC1=O)c1cc(F)ccc1F` [Example 9, (S)-2,5-difluoro-N-(2-oxopiperidin-3-yl)benzamide], the melting point lay in the range of 140 to 142 °C.

In turn, `CCCCCCc1ccc(C(=O)N[C@@H]2CCCNC2=O)cc1` [Example 24, (R)-3-(4′-Hexylbenzoylamino)-tetrahydropyridin-2-one] returned a melting point of 117 to 118 °C.

Compound `CCCCc1ccc(C(=O)N[C@H]2CCCNC2=O)cc1` [Example 17, (S)-3-(4′-Butylbenzoylamino)-tetrahydropyridin-2-one] returned a melting point of 117 to 118 °C.

`CCCCCCCCc1ccc(C(=O)N[C@@H]2CCCNC2=O)cc1` [Example 27, (R)-3-(4′-Octylbenzoylamino)-tetrahydropyridin-2-one] had a melting point of 122 to 123 °C.

The compound `CCCCCCCCc1ccc(C(=O)N[C@H]2CCCCNC2=O)cc1` [Example 25, (S)-3-(4′-Octylbenzoylamino)-azepan-2-one] came in with a melting point of 159 to 160 °C.

As for `O=C(N[C@H]1CCCNC1=O)c1ccccc1F` [Example 2, (S)-2-Fluoro-N-(2-oxopiperidin-3-yl)benzamide], the melting point lay within 166 to 168 °C.

As to `CCc1ccc(C(=O)N[C@H]2CCCCNC2=O)cc1` [Example 14, (S)-3-(4′-Ethylbenzoylamino)-azepan-2-one], the melting point is 218 to 219 °C.

`O=C(N[C@H]1CCCNC1=O)c1ccccc1C(F)(F)F` [Example 6, (S)—N-(2-Oxopiperidin-3-yl)-2-(trifluoromethyl)benzamide] returned a melting point of 155 to 156 °C.

Turning to `CCCCc1ccc(C(=O)N[C@@H]2CCCNC2=O)cc1` [Example 18, (R)-3-(4′-Butylbenzoylamino)-tetrahydropyridin-2-one], the melting point lay within 116 to 117 °C.

`CC(C)(C)c1ccc(C(=O)N[C@@H]2CCCNC2=O)cc1` [Example 21, (R)-3-(4′-tert-Butylbenzoylamino)-tetrahydropyridin-2-one] showed a melting point of 193 to 194 °C.

In turn, `CCCCCCc1ccc(C(=O)N[C@H]2CCCCNC2=O)cc1` [Example 22, (S)-3-(4′-Hexylbenzoylamino)-azepan-2-one] showed a melting point of 167 to 168 °C.

`CCCCc1ccc(C(=O)N[C@H]2CCCCNC2=O)cc1` [Example 16, (S)-3-(4′-Butylbenzoylamino)-azepan-2-one] came in with a melting point of 183 to 184 °C.

In turn, `CC(C)(C)c1ccc(C(=O)N[C@H]2CCCCNC2=O)cc1` [Example 19, (S)-3-(4′-tert-Butylbenzoylamino)-azepan-2-one] showed a melting point of 204 to 205 °C.

Compound `O=C(N[C@H]1CCCNC1=O)c1c(F)cccc1F` [Example 10, (S)-2,6-difluoro-N-(2-oxopiperidin-3-yl)benzamide] returned a melting point of 190 to 194 °C.

Compound `O=C(N[C@H]1CCCNC1=O)c1cccc(C(F)(F)F)c1` [Example 5, (S)—N-(2-Oxopiperidin-3-yl)-3-(trifluoromethyl)benzamide] yielded a melting point of 148 to 150 °C.

As to `O=C(N[C@H]1CCCNC1=O)c1ccc(F)cc1F` [Example 8, (S)-2,4-difluoro-N-(2-oxopiperidin-3-yl)benzamide], the melting point lay within 140 to 141 °C.

In turn, `O=C(N[C@H]1CCCNC1=O)c1cccc(F)c1` [Example 1, (S)-3-Fluoro-N-(2-oxopiperidin-3-yl)benzamide] registered a melting point of 164 to 166 °C.

These data come from patent US20130172318A1, “ANTI-INFLAMMATORY AGENTS” (priority 2010, published 2013).
